# In paper PMC7504817, “Phenylalanine Stereoisomers of CJ-15,208 and [D-Trp]CJ-15,208 Exhibit Distinctly Different Opioid Activity Profiles” (Molecules, 2020):
# “Also recorded” adds a separate entry of the source. Read-outs that look alike come from different tables or passages of the source.
# Assays:
# [1] = Metabolic stability in mouse liver microsomes; format: in vitro ADME; conditions: pH 7.4, 5 µM peptide, 0.25 mg/mL protein, with NADPH, 37 °C, read-out: t1/2 in mouse liver microsomes
# Description: The macrocyclic tetrapeptide (5 µM) in 1% acetonitrile was incubated with mouse liver microsomes (0.25 mg/mL protein, Xenotech, Lenexa, KS, USA) at 37 °C in the presence or absence of co-factor NADPH RapidStart System (1 mM, Xenotech) or NADPH solution (Sigma, St. Louis, MO, USA) in potassium phosphate buffer (50 mM, pH 7.4). Aliquots (100 µL) taken at 0, 5, 15, 30, 60 and 120 min were quenched with ice-cold acetonitrile (1 vol) containing internal standard ([D-NMeAla^2]CJ-15,208 [26], 5 µM) to precipitate the proteins. The lack of endogenous interference with the analysis of the stereoisomer or internal standard was confirmed by analyzing samples lacking the macrocyclic tetrapeptide.
# Following centrifugation at 10,000× g rpm for 10 min, the supernatant (50 µL) was diluted with water (75 µL), stored overnight at −20 °C and analyzed by LC-MS/MS using methodology similar to that described for [D-Trp]CJ-15,208 [32]. Liquid chromatography was performed on a Hypersil BDS C8 column (50 mm × 2.1 mm, 3 µm) with a flow rate of 0.2 mL/min and an injection volume of 20 µL using an Acquity UPLC system (Waters, Milford, MA, USA). The peptides were separated using a gradient of aqueous acetonitrile containing 0.08% formic acid of 20% B (0–2 min), 20–50% B (2–3 min), 50–80% B (3–6 min), 80% B (6–7 min), 80–20% B (7–8 min) and 20% B (8–10 min).
# ESI-MS/MS was performed on a Waters Quatro triple quadrupole instrument operating in the positive ion multiple reaction monitoring mode. Data acquisition was carried out with Mass Lynx 4.1 software with the following settings: capillary voltage, 2500 V; cone voltage, 30 V; source temperature, 100 °C; desolvation temperature, 250 °C; cone gas flow, 279 L/h; desolvation gas flow, 1157 L/h; LM 1 resolution, 14; HM 1 resolution, 14; ion energy 1, 1.0; MS/MS mode entrance, -1; MS/MS collision energy, 35 eV; MS/MS mode exit, 2; LM 2 resolution, 13.0; HM 2 resolution, 13.0; ion energy 2, 1.5; multiplier, 650; collision cell pressure, 1.63 × 10^−3 mbar; collision gas, argon. The transition m/z 578.2 ([M + H]^+) → 217.2 was monitored to determine the peak area counts of the stereoisomers, and m/z 566.2 ([M + H]^+) → 232.9 was monitored to determine the peak area counts of the internal standard (collision energy 22 eV) with the following settings: dwell time, 0.3 s; delay, 0.05 s.
# C57BL/6J mice [2] = experiment: 55 °C warm-water tail-withdrawal assay (antinociception); format: in vivo, mouse; parameters: key to ED50 p.o. (symbol: not calculable): ~: Maximum antinociception not achieved, precluding calculation of an ED50 value; conditions: for ED50 (and 95% C.I.) i.c.v. / ED50 (and 95% C.I.) p.o. / ED50 p.o. (symbol: not calculable): C57BL/6J mice; for ED50 (and 95% C.I.) i.c.v. / ED50 (and 95% C.I.) p.o.: antinociception at peak response; for antinociceptive efficacy / ED50 (and 95% C.I.) p.o. / antinociception at the highest oral dose tested / ED50 p.o. (symbol: not calculable): p.o.; for antinociception at the highest oral dose tested: 30 mg/kg
# Description: For intracerebroventricular (i.c.v.) administration the macrocyclic tetrapeptides were dissolved in dimethyl sulfoxide (DMSO), followed by addition of sterile saline (0.9%) so that the final vehicle was 50% DMSO and 50% saline, and the i.c.v. injections performed as described previously. This concentration of DMSO was not observed to have antinociceptive or behavioral effects in previous use. For per os (p.o.) administration the macrocyclic tetrapeptides were administered in 10% Solutol in 0.9% saline. All solutions for animal administration were prepared fresh daily.
# The 55 °C warm-water tail-withdrawal assay was performed in mice as previously described, with the latency of the mouse to withdraw its tail from the water taken as the endpoint (a cut-off time of 15 sec was used in this assay). Antinociception was calculated according to the following formula: % antinociception = 100 × (test latency − control latency)/(15 − control latency). Tail-withdrawal data points are the means of 8–16 mice, unless otherwise indicated, with SEM shown by error bars.
# All dose-response lines were analyzed by regression, and ED50 (effective dose producing 50% antinociception) values and 95% confidence intervals (C.I.) determined using individual data points from graded dose-response curves with Prism 8.0 software (GraphPad, La Jolla, CA, USA). Percent antinociception was used to determine within group effects and to allow comparison to baseline latency in tail-withdrawal experiments. The statistical significance of differences between ED50 values was determined by evaluation of the ED50 value shift via nonlinear regression modeling with Prism software. Significant differences in behavioral data were analyzed by ANOVA (one-way or two-way with repeated measures (RM), as appropriate). Significant results were further analyzed with Sidak’s, Tukey’s, or Dunnett’s multiple comparison post hoc tests, as appropriate. Data for conditioned place preference experiments were analyzed by two-way RM ANOVA, with analyses examining the main effect of conditioned place preference phase (e.g., pre- or post-conditioning) and the interaction of drug pretreatment. Significant effects were further analyzed using Sidak’s HSD post hoc testing. All data are presented as mean ± SEM, with significance set at p < 0.05.
# rat KOR [3] = target: T1, rat KOR (Rattus norvegicus, UniProt P34975); experiment: biochemical
# C57BL/6J mice [4] = experiment: Opioid receptor involvement in antinociception (antagonist pretreatment, tail-withdrawal assay); format: in vivo, mouse; conditions: i.c.v. (1, 3, 4, 5 at 10 nmol, 2 at 100 nmol); pretreatment with β-FNA, nor-BNI or naltrindole
# C57BL/6J mice [5] = experiment: Acute antinociceptive tolerance (tail-withdrawal assay, dosing at 0 and 8 h); conditions: i.c.v.; for Fold-Shift, Naïve ED50 vs. Second ED50: 0 h vs 8 h; for acute antinociceptive tolerance: ED50 at 8 h vs 0 h; for Naïve ED50 (95% C.I.): naïve C57BL/6J mice, tail-withdrawal assay; for ED50 (95% C.I.) Pretreated Mice: 8 h after pretreatment with ED50 dose of the same compound, * significantly different from naïve
# KOR = target: T2, KOR (Mus musculus, UniProt P33534); experiment: Antagonist activity against KOR-selective agonist U50,488 (tail-withdrawal assay); format: in vivo; conditions: stereoisomer 30 nmol i.c.v. pretreatment; U50,488 10 mg/kg i.p.
# T2 construct: from tissue; host or cells: whole animal, C57BL/6J mice
# rat MOR = target: T3, rat MOR (Rattus norvegicus, UniProt P33535); experiment: Radioligand equilibrium competition binding, MOR; conditions: [3H]DAMGO; membranes from CHO cells expressing rat MOR; mean ± SEM, at least three experiments
# T3 construct: expressed in transfected cells
# C57BL/6J mice [6] = conditions: mouse, in vivo
# rat KOR [7] = target: T1, rat KOR; conditions: ratio Ki(MOR)/Ki(KOR)
# C57BL/6J mice [8] = conditions: mouse, in vivo; remark: listed apart in the source
# C57BL/6J mice [9] = conditions: mouse, in vivo; remark: listed apart in the source
# C57BL/6J mice [10] = system: C57BL/6J mice; parameters: key to ED50 i.c.v. (symbol: not calculable) / ED50 p.o. (symbol: not calculable): ~: Maximum antinociception not achieved, precluding calculation of an ED50 value; conditions: ref [19], cited from earlier work
# mouse DOR = conditions: radioligand binding; ref [19]; cited from earlier work
# T3 sequence (P33535 whole entry): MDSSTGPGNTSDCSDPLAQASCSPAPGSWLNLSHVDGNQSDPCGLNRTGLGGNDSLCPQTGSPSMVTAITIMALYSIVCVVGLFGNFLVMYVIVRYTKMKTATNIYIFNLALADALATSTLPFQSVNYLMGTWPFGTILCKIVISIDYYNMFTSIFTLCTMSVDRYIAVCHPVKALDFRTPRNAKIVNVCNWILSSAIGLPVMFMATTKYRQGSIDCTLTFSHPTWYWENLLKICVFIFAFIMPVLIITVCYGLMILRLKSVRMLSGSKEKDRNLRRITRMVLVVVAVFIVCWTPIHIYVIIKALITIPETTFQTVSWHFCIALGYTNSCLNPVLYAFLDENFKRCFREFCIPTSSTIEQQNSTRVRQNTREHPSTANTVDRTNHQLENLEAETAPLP
# T1 sequence (P34975 whole entry): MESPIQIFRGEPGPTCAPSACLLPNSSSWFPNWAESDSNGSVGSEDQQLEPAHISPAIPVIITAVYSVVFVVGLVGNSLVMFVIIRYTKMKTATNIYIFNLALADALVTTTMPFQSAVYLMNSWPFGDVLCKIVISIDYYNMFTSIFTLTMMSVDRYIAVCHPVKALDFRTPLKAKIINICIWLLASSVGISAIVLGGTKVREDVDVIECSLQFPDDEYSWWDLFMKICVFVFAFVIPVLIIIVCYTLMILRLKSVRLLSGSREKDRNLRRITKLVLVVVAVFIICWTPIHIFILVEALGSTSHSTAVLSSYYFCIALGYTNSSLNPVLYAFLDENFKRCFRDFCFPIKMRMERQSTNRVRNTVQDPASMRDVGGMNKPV
# T2 sequence (P33534 whole entry): as the sequence (P34975 whole entry) above, with E11D, A17S, P51S, V308A counted along it
SMILES,half-life at 5 µM [1],time of peak antinociception (C57BL/6J mice [2]; after i.c.v. administration),duration of significant antinociception (C57BL/6J mice [2]; i.c.v. administration),ED50 (and 95% C.I.) i.c.v. (C57BL/6J mice [2]; i.c.v.),antinociceptive efficacy (C57BL/6J mice [2]),time of peak antinociception (C57BL/6J mice [2]; p.o. administration),ED50 (and 95% C.I.) p.o. (C57BL/6J mice [2]),Ki (rat KOR [3]),Receptors Involved (in antinociception) (C57BL/6J mice [4]),"Fold-Shift, Naïve ED50 vs. Second ED50 (C57BL/6J mice [5])",acute antinociceptive tolerance (C57BL/6J mice [5]),Naïve ED50 (95% C.I.) (C57BL/6J mice [5]),Ki (rat MOR),effect on coordinated locomotor performance (rotarod) vs vehicle (C57BL/6J mice [6]),antinociception at the highest oral dose tested (C57BL/6J mice [2]),ED50 p.o. (symbol: not calculable) (C57BL/6J mice [2]),ED50 (95% C.I.) Pretreated Mice (C57BL/6J mice [5]),Selectivity Ki (MOR) Ki (KOR) (rat KOR [7]),further results
"O=C1N[C@H](Cc2ccccc2)C(=O)N2CCC[C@@H]2C(=O)N[C@@H](Cc2ccccc2)C(=O)N[C@H]1Cc1c[nH]c2ccccc12 (single isomer, unassigned) [Stereoisomer 1, cyclo[D-Phe-D-Pro-Phe-Trp]]",54 min,20 min,intermediate duration,0.75 (0.36–1.44) nmol,full antinociception,20 to 30 min,7.62 (5.12–12.2) mg/kg,5.12 ± 0.69 µM,"all three opioid receptors contributed to the antinociception; also recorded: KOR, MOR, DOR",31.2 fold,"greater acute antinociceptive tolerance than CJ-15,208",0.65 (0.31–1.31) nmol,> 10000 nM,limited impairment of performance,–,–,–,–,"antagonism of U50,488 antinociception (KOR antagonist activity) (KOR): significant antagonism of U50,488"
"O=C1N[C@@H](Cc2ccccc2)C(=O)N2CCC[C@@H]2C(=O)N[C@H](Cc2ccccc2)C(=O)N[C@H]1Cc1c[nH]c2ccccc12 (single isomer, unassigned) [Stereoisomer 2, cyclo[Phe-D-Pro-D-Phe-Trp]]",15 min,30 min,90 min,20.4 (10–58.7) nmol,–,–,–,0.362 ± 0.051 µM,KOR- and MOR-mediated antinociception,6.13 fold,the increase was not statistically significant,20.4 (10–58.7) nmol,3920 ± 200 nM,lacked any significant effect,45–60%,~,125 (89.9–224) nmol,11,"antinociception at the highest dose tested (C57BL/6J mice [2]; 100 nmol, i.c.v.): approximately 70%"
"O=C1N[C@H](Cc2ccccc2)C(=O)N2CCC[C@@H]2C(=O)N[C@H](Cc2ccccc2)C(=O)N[C@H]1Cc1c[nH]c2ccccc12 (single isomer, unassigned) [Stereoisomer 3, cyclo[D-Phe-D-Pro-D-Phe-Trp]]",6 min,20 min,45 min,1.00 (0.64–1.60) nmol,full antinociception,20 to 30 min,4.12 (3.30–5.31) mg/kg,2.56 ± 0.48 µM,KOR- and DOR-mediated,5.19 fold,"greater acute antinociceptive tolerance than CJ-15,208",1.00 (0.64–1.60) nmol,7780 ± 410 nM,lacked any significant effect,–,–,–,3,conditioned place preference or aversion (C57BL/6J mice [8]): no significant preference or aversion; effect on ambulation vs vehicle (C57BL/6J mice [9]): elevated ambulations at several time-points
"O=C1N[C@H](Cc2c[nH]c3ccccc23)C(=O)N[C@H](Cc2ccccc2)C(=O)N2CCC[C@@H]2C(=O)N[C@H]1Cc1ccccc1 (single isomer, unassigned) [Stereoisomer 4, cyclo[D-Phe-D-Pro-Phe-D-Trp]]",30 min,20 min,45 min,2.39 (1.40–4.56) nmol,–,–,–,> 10 µM,KOR- and DOR-mediated,0.54 fold,Neither stereoisomer 4 or 5 demonstrated any significant changes in the ED50 values,2.39 (1.40–4.56) nmol,> 10000 nM,limited impairment of performance,45–60%,~,1.28 (0.96–1.66) nmol,–,duration of significant antinociception (C57BL/6J mice [2]; p.o. administration): 30 to 40 min; effect on respiration rate vs vehicle (C57BL/6J mice [9]): significant decreases in respiration rates
"O=C1N[C@H](Cc2c[nH]c3ccccc23)C(=O)N[C@@H](Cc2ccccc2)C(=O)N2CCC[C@@H]2C(=O)N[C@H]1Cc1ccccc1 [[D-Trp]CJ-15,208, cyclo[Phe-D-Pro-Phe-D-Trp]]",–,–,–,–,–,–,–,0.0218 ± 0.0048 µM,–,–,–,–,–,–,–,–,–,12,"ED50 i.c.v. (symbol: not calculable) (C57BL/6J mice [10]; i.c.v., mice, [21]): ~; ED50 p.o. (symbol: not calculable) (C57BL/6J mice [10]; p.o., mice, [21]): ~; antinociceptive activity (C57BL/6J mice [10]): minimal antinociceptive activity; affinity for DOR (mouse DOR): negligible affinity for DOR"
